# From US10251395B2, “Substituted furano-/thienocycloalkylamino-2-pyrimidine derivatives and use thereof for controlling undesired plant growth” (Bayer CropScience Aktiengesellschaft, priority 2015, dated 2019)
# Columns and labels:
# logP (HCOOH) = format: physicochemical
# Description: Table 2 (physicochemical characterization of selected synthesis examples)
# Amaranthus retroflexus [1] = experiment: Pre-emergence herbicidal effect; format: in vivo; conditions: Dosage 320 g/ha, scored visually after 3 weeks
# Outline: (§1)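 Pre-emergence soil-surface application of compound as WP or EC in water (600 to 800 L/ha, 0.2% wetting agent) to freshly sown, soil-covered seeds in sandy loam. After 3 weeks under greenhouse conditions, percent activity rated by eye versus untreated plants, from 0% (no effect) to 100% (death).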
# Stellaria media [2] = experiment: Pre-emergence herbicidal effect; format: in vivo; conditions: scored visually after 3 weeks
# Outline: as §1
# Veronica persica = experiment: Pre-emergence herbicidal effect; format: in vivo; conditions: scored visually after 3 weeks
# Outline: as §1
# Viola tricolor [3] = experiment: Pre-emergence herbicidal effect; format: in vivo; conditions: scored visually after 3 weeks
# Outline: as §1
# Viola tricolor [4] = experiment: Post-emergence herbicidal effect; format: in vivo; conditions: assessed visually after about 3 weeks vs untreated controls
# Outline: (§2)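 Sow in sandy loam; grow in greenhouse 2–3 wk; spray one-leaf plants with WP or EC suspension/emulsion (600–800 L/ha water, 0.2% wetter); hold ~3 wk under optimal conditions; rate visually vs untreated (0–100%).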
# Alopecurus myosuroides = experiment: Pre-emergence herbicidal effect; format: in vivo; conditions: Dosage 320 g/ha, scored visually after 3 weeks
# Outline: as §1
# Echinochloa crus-galli = experiment: Pre-emergence herbicidal effect; format: in vivo; conditions: Dosage 320 g/ha, scored visually after 3 weeks
# Outline: as §1
# Lolium multiflorum = experiment: Pre-emergence herbicidal effect; format: in vivo; conditions: Dosage 320 g/ha, scored visually after 3 weeks
# Outline: as §1
# Matricaria inodora = experiment: Pre-emergence herbicidal effect; format: in vivo; conditions: scored visually after 3 weeks
# Outline: as §1
# Polygonum convolvulus [5] = experiment: Pre-emergence herbicidal effect; format: in vivo; conditions: Dosage 80 g/ha, scored visually after 3 weeks
# Outline: as §1
# Setaria viridis = experiment: Pre-emergence herbicidal effect; format: in vivo; conditions: Dosage 320 g/ha, scored visually after 3 weeks
# Outline: as §1
# Abutilon theophrasti = experiment: Post-emergence herbicidal effect; format: in vivo; conditions: 320 g/ha, assessed visually after about 3 weeks vs untreated controls
# Outline: as §2
# Amaranthus retroflexus [6] = experiment: Post-emergence herbicidal effect; format: in vivo; conditions: 320 g/ha, assessed visually after about 3 weeks vs untreated controls
# Outline: as §2
# Polygonum convolvulus [7] = experiment: Post-emergence herbicidal effect; format: in vivo; conditions: 320 g/ha, assessed visually after about 3 weeks vs untreated controls
# Outline: as §2
# Stellaria media [8] = experiment: Post-emergence herbicidal effect; format: in vivo; conditions: 320 g/ha, assessed visually after about 3 weeks vs untreated controls
# Outline: as §2
compound,measurement,setting,value
Cc1sc(C)c2c1CCCC2Nc1ncc(C#N)c(N)n1 (racemic) [compound 56],logP (HCOOH),logP (HCOOH),oily; logP (HCOOH): 2.66;
N#Cc1cnc(NC2CCc3cc(Cl)sc32)nc1N (racemic) [compound 49],AMARE pre-emergence efficacy (herbicidal activity),Amaranthus retroflexus [1],100%
same,STEME pre-emergence efficacy (herbicidal activity),Stellaria media [2]; Dosage 80 g/ha,90%
same,STEME pre-emergence efficacy (herbicidal activity),Stellaria media [2]; Dosage 320 g/ha,100%
same,VERPE pre-emergence efficacy (herbicidal activity),Veronica persica; Dosage 320 g/ha,70%
same,VIOTR pre-emergence efficacy (herbicidal activity),Viola tricolor [3]; Dosage 80 g/ha,100%
same,VIOTR pre-emergence efficacy (herbicidal activity),Viola tricolor [3]; Dosage 320 g/ha,100%
same,post-emergence efficacy VIOTR,Viola tricolor [4]; 80 g/ha,80%
same,post-emergence efficacy VIOTR,Viola tricolor [4]; 320 g/ha,90%
same,logP (HCOOH),logP (HCOOH),solid; logP (HCOOH): 2.32;
CO/N=C(/C)c1cnc(NC2CCCc3sccc32)nc1N (racemic) [compound 292],ALOMY pre-emergence efficacy (herbicidal activity),Alopecurus myosuroides,100%
same,AMARE pre-emergence efficacy (herbicidal activity),Amaranthus retroflexus [1],100%
same,ECHCG pre-emergence efficacy (herbicidal activity),Echinochloa crus-galli,100%
same,LOLMU pre-emergence efficacy (herbicidal activity),Lolium multiflorum,70%
same,MATIN pre-emergence efficacy (herbicidal activity),Matricaria inodora; Dosage 80 g/ha,80%
same,MATIN pre-emergence efficacy (herbicidal activity),Matricaria inodora; Dosage 320 g/ha,100%
same,POLCO pre-emergence efficacy (herbicidal activity),Polygonum convolvulus [5],70%
same,SETVI pre-emergence efficacy (herbicidal activity),Setaria viridis,100%
same,STEME pre-emergence efficacy (herbicidal activity),Stellaria media [2]; Dosage 80 g/ha,100%
same,STEME pre-emergence efficacy (herbicidal activity),Stellaria media [2]; Dosage 320 g/ha,100%
same,VERPE pre-emergence efficacy (herbicidal activity),Veronica persica; Dosage 80 g/ha,100%
same,VERPE pre-emergence efficacy (herbicidal activity),Veronica persica; Dosage 320 g/ha,100%
same,VIOTR pre-emergence efficacy (herbicidal activity),Viola tricolor [3]; Dosage 80 g/ha,100%
same,VIOTR pre-emergence efficacy (herbicidal activity),Viola tricolor [3]; Dosage 320 g/ha,100%
same,post-emergence efficacy ABUTH,Abutilon theophrasti,80%
same,post-emergence efficacy AMARE,Amaranthus retroflexus [6],80%
same,post-emergence efficacy POLCO,Polygonum convolvulus [7],30%
same,post-emergence efficacy STEME,Stellaria media [8],90%
same,post-emergence efficacy VIOTR,Viola tricolor [4]; 320 g/ha,80%
COc1nc(NC2CCCc3sc(C)cc32)ncc1F (racemic) [compound 224],logP (HCOOH),logP (HCOOH),"solid; logP (HCOOH): 3.12; 1H NMR (CDCl3, 400 MHZ, δ in ppm): 1.90 (m, 3H, 3H"
Cc1nc(N[C@@H]2CCCc3sccc32)ncc1F [compound 223],logP (HCOOH),logP (HCOOH),"solid; logP (HCOOH): 2.57; 1H NMR (CDCl3, 400 MHZ, δ in ppm): 1.90 (m, 3H, 3H"
"Cc1cc2c(o1)CC(C)(C)CC2Nc1ncc([N+](=O)[O-])c(N)n1 (stereo not shown) [compound 40, 5-Nitro-N2-(2,6,6-trimethyl-4,5,6,7-tetrahydro-1-benzofuran-4-yl)pyrimidine-2,4-diamine]",chromatographic logP,logP (HCOOH); HCOOH (formic acid),3.2
CC(=O)c1cnc(N[C@@H]2CCCc3sccc32)nc1C [compound 71],logP (HCOOH),logP (HCOOH),"solid; logP (HCOOH): 2.98; 1H NMR (CDCl3, 400 MHZ, δ in ppm): ): 1.85 (m, 3H,"
Cc1nc(NC2CCCc3c(C)sc(C)c32)nc(N)c1C#N (racemic) [compound 64],logP (HCOOH),logP (HCOOH),"solid, logP (HCOOH): 2.71; 1H NMR (CDCl3, 400 MHZ, δ in ppm): 1.75 (m, 3H, 3H"
